Measurements from patent US11952354B1, “5-((2-isopropyl-5-methylphenoxy)methyl)-3-(naphthalen-2-yl)-1,2,4-oxadiazole as an anti-cancer and antimicrobial compound” (KING FAISAL UNIVERSITY, priority 2023, dated 2024).

How the values were obtained:
Aspergillus flavus = assay: agar plate disc-diffusion, antifungal inhibition zone; type: cell-based
Description: (§1) The agar plate disc-diffusion method was applied. […] The discs were then placed onto the surface of agar plates (nutrient agar for bacteria and Sabouraud's dextrose agar for fungi) seeded with the test organism. Each plate contained 15 mL of the agar medium, previously seeded with 0.2 mL of the broth culture of each organism pregrown for 18 hours. The plates were incubated at 37° C. for 48 h, and 72 h for fungi. The inhibition zones were measured in mm. Discs impregnated with DMSO were used as a control, and its inhibition zone was subtracted from the tested compound actual inhibition zone.

[1] = system: Chrysosporium keratinophilum; assay: as above; type: cell-based
Description: as §1

Staphylococcus aureus = assay: agar plate disc-diffusion, antibacterial inhibition zone; type: cell-based
Description: as §1

Pseudomonas aeruginosa = assay: as above; type: cell-based
Description: as §1

Bacillus Cereus = assay: as above; type: cell-based
Description: as §1

Escherichia coli = assay: as above; type: cell-based
Description: as §1

different microbes = assay: agar plate disc-diffusion, overall antimicrobial activity; type: cell-based; settings: against different microbes (bacteria and fungi)
Description: The agar plate disc-diffusion method was applied. Sterilized filter papers (6 mm in diameter) were wetted with 10 μL of a solution of 5-((2-isopropyl-5-methylphenoxy)methyl)-3-(naphthalen-2-yl)-1,2,4-oxadiazole (3) to be tested, containing 10 mg/mL in DMSO, and the discs were allowed to air dry. The discs were then placed onto the surface of agar plates (nutrient agar for bacteria and Sabouraud's dextrose agar for fungi) seeded with the test organism. Each plate contained 15 mL of the agar medium, previously seeded with 0.2 mL of the broth culture of each organism pregrown for 18 hours. The plates were incubated at 37° C. for 48 h, and 72 h for fungi. The inhibition zones were measured in mm. Discs impregnated with DMSO were used as a control, and its inhibition zone was subtracted from the tested compound actual inhibition zone.

[2] = system: human prostate cancer cells (PC3); assay: cytotoxicity by SRB assay; type: cell-based; settings: 0.01 μM to 100 μM for 72 h
Text: (§2) The anticancer activity of the described synthesized compounds against highly aggressive androgen-independent metastatic human prostate cancer cells (PC3) and osteosarcoma (MG-63) cells. The human prostate cancer cells (PC3) and human osteosarcoma cells (MG-63) were obtained from Nawah Scientific Inc. (Mokatam, Cairo, Egypt) and cultured in DMEM (Dulbecco's modified eagle's medium), Gibco, USA, supplemented with fetal bovine serum (FBS) at a concentration of 10% and 100 U/mL of penicillin and streptomycin (PS). The Cells were incubated at 37° C. in a humidified environment that contained 5% CO2.
(§3) Cells were seeded in 96-well plates as aliquots of 100 μL cell suspension and incubated in a complete media for 24 h. afterward, cells were treated with 5-((2-isopropyl-5-methylphenoxy)methyl)-3-(naphthalen-2-yl)-1,2,4-oxadiazole at diverse concentrations ranging from 0.01 μM to 100 μM for 72 h. Then, cells were fixed at 4° C. for one hour with 150 μL of 10% trichloroacetic acid (TCA). […] Then, 150 μL of Tris pH 10.5 (10 mM) was added, and the absorbance was measured at 540 nm using a BMG LABTECH®-FLUOstar Omega microplate reader (Ortenberg, Germany). Half maximal inhibitory concentrations (IC50) values were calculated for each experiment using GraphPad Prism 6 software. […]
(§4) The inhibition was calculated using the following equation: Inhibition %=100−Average Viability

[3] = system: human osteosarcoma cells (MG-63); assay: cytotoxicity by SRB assay; type: cell-based; settings: MG-63 cells, 0.01 μM to 100 μM for 72 h
Text: as §2, §3, §4

[4] = A = concentration of comp. = 10,000 μL
[5] = B = concentration of comp. = 30,000 μL
[6] = C = concentration of comp. = 50,000 μL

| SMILES | inhibition zone (Aspergillus flavus; [4]) | inhibition zone (Aspergillus flavus; [5]) | inhibition zone (Aspergillus flavus; [6]) | inhibition zone [1, 4] | inhibition zone [1, 5] | inhibition zone [1, 6] | inhibition zone (Staphylococcus aureus; [4]) | inhibition zone (Staphylococcus aureus; [5]) | inhibition zone (Staphylococcus aureus; [6]) | inhibition zone (Pseudomonas aeruginosa; [4]) | inhibition zone (Pseudomonas aeruginosa; [5]) | inhibition zone (Pseudomonas aeruginosa; [6]) | inhibition zone (Bacillus Cereus; [4]) | inhibition zone (Bacillus Cereus; [5]) | inhibition zone (Bacillus Cereus; [6]) | inhibition zone (Escherichia coli; [4]) | inhibition zone (Escherichia coli; [5]) | inhibition zone (Escherichia coli; [6]) | also measured |
| --- | --- | --- | --- | --- | --- | --- | --- | --- | --- | --- | --- | --- | --- | --- | --- | --- | --- | --- | --- |
| O=C(O)c1cn(C2CC2)c2cc(N3CCNCC3)c(F)cc2c1=O [Cip., ciprofloxacin, reference compound] | 29 mm | 30 mm | 42 mm | 29 mm | 30 mm | 53 mm | 43 mm | 44 mm | 53 mm | 29 mm | 30 mm | 53 mm | 29 mm | 30 mm | 42 mm | 30 mm | 39 mm | 60 mm |  |
| Cc1ccc(C(C)C)c(OCc2nc(-c3ccc4ccccc4c3)no2)c1 [compound 3, 5-((2-isopropyl-5-methylphenoxy)methyl)-3-(naphthalen-2-yl)-1,2,4-oxadiazole] | 20 mm | 25 mm | 33 mm | 26 mm | 29 mm | 45 mm | 17 mm | 24 mm | 32 mm | 25 mm | 29 mm | 40 mm | 24 mm | 27 mm | 38 mm | 28 mm | 34 mm | 49 mm | antimicrobial activity (different microbes): excellent antimicrobial activities; antiproliferative activity [2]: excellent antiproliferative activities; antiproliferative activity [3]: excellent antiproliferative activities; melting point: 187 to 188 °C |
